This is an account of results in patent US20240082341A1, “PEPTIDE FOR USE IN THE TREATMENT OR PREVENTION OF COVID-19” (Instytut Biochemii I Biofizyki Polskiej Akademii Nauk, priority 2020, published 2024).

Ends that are not written are not given here.

The target in this assay is RBD domain of the S1 subunit of viral S glycoprotein (Severe acute respiratory syndrome coronavirus 2, UniProt P0DTC2). The experiment in a line: Binding of the peptides to the RBD domain of viral S glycoprotein (microscale thermophoresis, MST). On the set-up: species or system SARS-CoV-2. The conditions noted are these: for binding strength compared with the native peptide (1d): RBD domain, comparison with peptide 1d.

For the compound `NC(=O)C[C@H](NC(=O)CNC(=O)[C@H](Cc1ccc(O)cc1)NC(=O)[C@@H](N)CC(=O)O)C(=O)N[C@@H](Cc1c[nH]cn1)C(=O)N[C@@H](CCC(=O)O)C(=O)O` [Peptide 2d, DYGNHE], the “binding strength compared with the native peptide (1d)” value was “significantly higher”.

Consider `CSCC[C@H](N)C(=O)N[C@@H](Cc1ccc(O)cc1)C(=O)NCC(=O)N[C@@H](CC(N)=O)C(=O)N[C@@H](Cc1c[nH]cn1)C(=O)N[C@@H](CCC(=O)O)C(=O)O` [Peptide J3.2, MYGNHE], for which the “binding strength compared with the native peptide (1d)” value is reported as “significantly higher”.

For MYGNYE [Peptide J3.4, MYGNYE], the dissociation constant (Kd) (peptide-RBD complex, 25° C., cell unit μM, read-out: KD (nM) Tmeasurement 25° C.) is > 10 µM.
